Laboratory results published in paper PMC11201061, “Mechanistic Study of Antimicrobial Effectiveness of Cyclic Amphipathic Peptide [R4W4] against Methicillin-Resistant Staphylococcus aureus Clinical Isolates” (Antibiotics, 2024).
≈ marks a conversion by molar mass, not a printed value. Where a SMILES comes first, the peptide text is derived from it.

Assays:
[1] = 25% fresh human serum in RPMI buffer, 37 °C, peptide 100 µg/mL, 20 h; LC-MS; three independent experiments
Experimental: Fresh human serum (4 mL) was centrifuged at 12,500× g for 15 min at 4 °C to remove the lipids. A 25% human serum sample was prepared by adding 375 µL of the human serum supernatant to 1125 µL of RPMI buffer. […] The test sample was incubated in a water bath at 37 °C until a predetermined time interval (0, 1, 2, 4, 6, 8.5, 12, and 20 h). At the time intervals, a 150 µL aliquot test sample was added to a 300 µL cocktail solution [ethanol/formic acid (98:2 v/v) mixture] to cease the reaction. The test samples of aliquots were stored on dry ice for 20 min and then centrifuged at 17,200× g for 20 min. For LC-MS analysis, 150 µL supernatant aliquot test samples were stored at −20 °C [54].
A 20 μL aliquot of each sample was analyzed using an Xterra MS C18 column (3.9 × 150 mm, 5 μm, Waters, MA, USA), Nexera XR, and Prominence Shimadzu LC-20AD XR systems (Shimadzu Corporation, Kyoto, Japan) coupled with Shimadzu LC-MS-2020 mass spectrometer (Shimadzu, OR, USA). A two-component LC system consisted of mobile phase A (0.1% formic acid and 10% acetonitrile in water) and mobile phase B (0.1% formic acid and 100% acetonitrile). The flow rate was set at 1.0 mL/min. The Xterra MS C18 column at 40 °C was allowed to equilibrate with 95% mobile phase A. Peptides were loaded to the column and washed for 5 min with 95% mobile Phase A. Analytes were separated using a binary gradient of 0–95% mobile Phase B for 25 min. […] MS was conducted in multiple reaction monitoring and positive electrospray ionization mode. Fourteen concentrations of [R4W4] prepared by two-fold dilution of 200 μg/mL to 0.39 μg/mL were used to prepare calibration curves. The calibration curves were plotted using weighted (1/×2) least-squares linear regression analysis of peptide mass spectra area under the curve (AUC) versus concentration.

MRSA LAC = test: Thermal stability by MIC after heat exposure; type: cell-based, Staphylococcus aureus; details: [R4W4] stock exposed to 25, 50, 75 and 100 °C (10 min), then microbroth dilution
Experimental: As per temperature sensitivity, the [R4W4] stock solution (1.15 mg/mL) in a 2 mL Eppendorf microtube was exposed to 100 °C for 10 min. After the thermal exposure, the [R4W4] antibacterial effectiveness was evaluated against MRSA using a microbroth dilution assay, as explained above.

MRSA USA300 = test: Checkered board synergy assay with gentamicin; type: cell-based, Staphylococcus aureus
Experimental: An amount of 100 µL of [R4W4] peptide test solution at a final concentration of 512 µg/mL was added to each well A-G column 1 in plate A using a multi-channel pipette. A 50 µL MH Broth was added to micro-plate well A-G columns 2–9. Using a multi-channel pipette, a two-fold serial dilution was performed by removing 50 µL solution from column 1 and was added to column 2 with thorough mixing. The micro-pipette was discarded after each transfer. The last portion after column 9 was discarded. In another microplate, 100 µL MHB was added to well B-G columns 1–11 using a multi-channel pipette. A 200 µL gentamicin test solution 512 µg/mL was added to row A, columns 1–11. A two-fold serial dilution was performed by removing 100 µL from rows A to B. The last portion was discarded. Using eight multi-channel pipettes, 50 µL of gentamicin test solution was transferred in the ordinate column A-G row 1 to the first microplate. The plate was incubated at 37 °C for 18–24 h. The fractional inhibitory concentration (FIC) of the antibacterial agents and the fractional inhibitory concentration index (FICI) of the two antibacterial agents were determined to evaluate the synergistic interaction. The FICI was interpreted as follows: FICI ≤ 0.5, synergy; 0.5 < FICI ≤ 1, partial synergy; 1 ≤ FICI < 4, additive effect or indifference; 4 ≤ FICI antagonism and calculated from the mean values from multiple experiments.

in vitro = details: human, 100% human plasma
Experimental: At the end of incubation at each of the time points, acetonitrile was added to the incubation mixture, followed by centrifugation. Samples were analyzed by HPLC-MS/MS, and peak areas were recorded for each analyte. The area of precursor compound remaining after each time point relative to the amount remaining at time zero, expressed as percent, is calculated. Subsequently, the half-life (T1/2) is estimated from the slope of the initial linear range of the logarithmic curve of the compound remaining (%) versus time, assuming first-order kinetics. The plasma stability experiment was performed at Eurofins Inc. (San Diego, CA, USA) [56].

## N=C(N)NCCC[C@@H]1NC(=O)[C@H](CCCNC(=N)N)NC(=O)[C@H](CCCNC(=N)N)NC(=O)[C@H](Cc2c[nH]c3ccccc23)NC(=O)[C@H](Cc2c[nH]c3ccccc23)NC(=O)[C@H](Cc2c[nH]c3ccccc23)NC(=O)[C@H](Cc2c[nH]c3ccccc23)NC(=O)[C@H](CCCNC(=N)N)NC1=O [[R4W4]] (cyclo(RRRRWWWW))
[1]
  remaining [R4W4] (intact peptide): over 70%
MRSA LAC
  MIC after thermal exposure: 4 µg/mL (≈ 2.92 µM)
MRSA USA300; MRSA USA300, checkered board
  MIC(A+B) ([R4W4] in combination with gentamicin): 1.5 µg/mL
MRSA USA300; MRSA USA300, checkered board, 37 °C, 18–24 h, mean values from multiple experiments
  MICA ([R4W4] alone): 6 µg/mL
MRSA USA300; MRSA USA300, fractional inhibitory concentration of [R4W4]
  FICA: 0.25
MRSA USA300; MRSA, [R4W4] + gentamicin combination versus alone
  reduction in MIC value in combination: 4 fold
In vitro
  half-life at 1 µM: ~1.43 h
